Measured values published in patent publication US20080145313A1, “Compositions and Methods for the Treatment and Prevention of Neoplastic Disorders” (Genesis Research & Development Corporation Limited, priority 2006, published 2008).

Experiments:
[1] = test system: target transcript mRNA in A549 cells; assay: Level of mRNA of target transcript in A549 cells by quantitative RT-PCR (Tables 12 and 13); format: cell-based, human; settings: 24 h post-transfection; for mRNA knockdown of transporter gene target transcript, 0.1 nM: 0.1 nM siRNA; for mRNA knockdown of transporter gene target transcript, 1 nM: 1 nM siRNA; for mRNA knockdown of transporter gene target transcript, 10 nM: 10 nM siRNA
Summary of the method: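 A549 cells were transfected with siRNA at 0.1, 1.0 and 10 nM. RNA was extracted 24 h later, reverse-transcribed with random primers, and target mRNA quantified by SYBR Green qRT-PCR. Values were normalised to housekeeping genes HPRT and Lamin.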

A549 cells = assay: Growth inhibition of siRNA-transfected A549 cells, SYBR Green I DNA content; format: cell-based, human; settings: A549 cells, 10 nM siRNA, DNA content 96 hours after transfection, transporter gene targets
Summary of the method: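 A549 cells reverse-transfected with 10 nM Stealth siRNAs via Lipofectamine RNAiMAX, seeded at 5×10^3 cells/cm^2 in RPMI 1640/10% FCS; non-specific siRNA control. DNA content read 96 h post-transfection by SYBR Green I fluorescence (ex 485/em 535 nm) after freeze-thaw and Triton X-100 lysis; mean of three wells.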

Substance | mRNA knockdown of transporter gene target transcript, 0.1 nM [1] | mRNA knockdown of transporter gene target transcript, 1 nM [1] | Growth Inhibition in A549 cells by 10 nM siRNA (A549 cells) | mRNA knockdown of transporter gene target transcript, 10 nM [1]
SEQ ID NO: 4908: siRNA targeting SLC3A2 (4F2hc) (chain 1 AAGTTGAGCCGGCAAGAAGGAAGTC; chain 2 AAGUUGAGCCGGCAAGAAGGAAGUC; Antisense strand given in DNA and RNA notation, chemistry not given here; one strand in two spellings) | − (<50% mRNA knockdown) | + (50-70% mRNA knockdown) | ++ (inhibits by at least 75%) | 
SEQ ID NO: 4909: siRNA targeting SLC3A2 (4F2hc) (chain 1 AAGAGCATCAGCTGGTAGAGTCGGA; chain 2 AAGAGCAUCAGCUGGUAGAGUCGGA; Antisense strand given in DNA and RNA notation, chemistry not given here; one strand in two spellings) | + (50-70% mRNA knockdown) | ++ (70-90% mRNA knockdown) | − (no growth inhibition) | 
SEQ ID NO: 4910: siRNA targeting SLC5A6 (SMVT1) (chain 1 AAGGCAAGGCCTCTGGAAAGCATGA; chain 2 AAGGCAAGGCCUCUGGAAAGCAUGA; Antisense strand given in DNA and RNA notation, chemistry not given here; one strand in two spellings) | − (<50% mRNA knockdown) | + (50-70% mRNA knockdown) | − (no growth inhibition) | 
SEQ ID NO: 4911: siRNA targeting SLC5A6 (SMVT1) (chain 1 AATGACGGAGCATAGAGCACAACTC; chain 2 AAUGACGGAGCAUAGAGCACAACUC; Antisense strand given in DNA and RNA notation, chemistry not given here; one strand in two spellings) | ++ (70-90% mRNA knockdown) | ++ (70-90% mRNA knockdown) | − (no growth inhibition) | 
SEQ ID NO: 4912: siRNA targeting SLC5A6 (SMVT1) (chain 1 ACCAGTGTCTGGAACACATCTGTCC; chain 2 ACCAGUGUCUGGAACACAUCUGUCC; Antisense strand given in DNA and RNA notation, chemistry not given here; one strand in two spellings) | + (50-70% mRNA knockdown) | + (50-70% mRNA knockdown) | − (no growth inhibition) | 
SEQ ID NO: 4913: siRNA targeting SLC19A2 (ThTr1) (chain 1 AATACAAGGAGACGGTCTGGCTTGG; chain 2 AAUACAAGGAGACGGUCUGGCUUGG; Antisense strand given in DNA and RNA notation, chemistry not given here; one strand in two spellings) | ++ (70-90% mRNA knockdown) | ++ (70-90% mRNA knockdown) | − (no growth inhibition) | 
SEQ ID NO: 4916: siRNA targeting SLC23A2 (SVCT2) (chain 1 AATACTAGGAATATTGTCAGCATGG; chain 2 AAUACUAGGAAUAUUGUCAGCAUGG; Antisense strand given in DNA and RNA notation, chemistry not given here; one strand in two spellings) | ++ (70-90% mRNA knockdown) | ++ (70-90% mRNA knockdown) | − (no growth inhibition) | 
SEQ ID NO: 4917: siRNA targeting SLC23A2 (SVCT2) (chain 1 AACAGCTGTAACTTGTACGCAGTCC; chain 2 AACAGCUGUAACUUGUACGCAGUCC; Antisense strand given in DNA and RNA notation, chemistry not given here; one strand in two spellings) | ++ (70-90% mRNA knockdown) | ++ (70-90% mRNA knockdown) | − (no growth inhibition) | 
SEQ ID NO: 4918: siRNA targeting SLC23A2 (SVCT2) (chain 1 AATCCAAGCACAAAGAGGTTCCGGG; chain 2 AAUCCAAGCACAAAGAGGUUCCGGG; Antisense strand given in DNA and RNA notation, chemistry not given here; one strand in two spellings) | ++ (70-90% mRNA knockdown) | ++ (70-90% mRNA knockdown) | − (no growth inhibition) | 
SEQ ID NO: 4919: siRNA targeting SLC9A1 (NHE1) (chain 1 AAACTCCTCAAAGAGGTGATACAGG; chain 2 AAACUCCUCAAAGAGGUGAUACAGG; chemistry not given here; one strand in two spellings) | ++ (70-90% mRNA knockdown) | ++ (70-90% mRNA knockdown) | + (inhibits by at least 50%) | 
SEQ ID NO: 4920: siRNA targeting SLC9A1 (NHE1) (chain 1 TCAGGTAGTTGTTGATCTTCTGCTC; chain 2 UCAGGUAGUUGUUGAUCUUCUGCUC; chemistry not given here; one strand in two spellings) | ++ (70-90% mRNA knockdown) | ++ (70-90% mRNA knockdown) | − (no growth inhibition) | 
SEQ ID NO: 4921: siRNA targeting SLC9A1 (NHE1) (chain 1 ATCAGTGACGGAATGATTAACAGGG; chain 2 AUCAGUGACGGAAUGAUUAACAGGG; chemistry not given here; one strand in two spellings) | ++ (70-90% mRNA knockdown) | ++ (70-90% mRNA knockdown) | − (no growth inhibition) | 
SEQ ID NO: 4922: siRNA targeting SLC16A1 (MCT1) (chain 1 ATAGGTAGTGGATAAAGGTGCTAGC; chain 2 AUAGGUAGUGGAUAAAGGUGCUAGC; chemistry not given here; one strand in two spellings) | + (50-70% mRNA knockdown) | ++ (70-90% mRNA knockdown) | + (inhibits by at least 50%) | +++ (>90% mRNA knockdown)
SEQ ID NO: 4923: siRNA targeting SLC16A1 (MCT1) (chain 1 AAATAATTAGGACGACGCCACATGC; chain 2 AAAUAAUUAGGACGACGCCACAUGC; chemistry not given here; one strand in two spellings) | + (50-70% mRNA knockdown) | ++ (70-90% mRNA knockdown) | − (no growth inhibition) | +++ (>90% mRNA knockdown)
SEQ ID NO: 4925: siRNA targeting SLC25A1 (CIC) (chain 1 TAATCACATCCAGAGGAGTGTTTCC; chain 2 UAAUCACAUCCAGAGGAGUGUUUCC; chemistry not given here; one strand in two spellings) | ++ (70-90% mRNA knockdown) | ++ (70-90% mRNA knockdown) | − (no growth inhibition) | 
SEQ ID NO: 4926: siRNA targeting SLC25A1 (CIC) (chain 1 AGTCCCACGTGTTCCGGTATTTGTG; chain 2 AGUCCCACGUGUUCCGGUAUUUGUG; chemistry not given here; one strand in two spellings) | ++ (70-90% mRNA knockdown) | ++ (70-90% mRNA knockdown) | ++ (inhibits by at least 75%) | 
SEQ ID NO: 4927: siRNA targeting SLC25A1 (CIC) (chain 1 TGCCTTTGTAGAATGCCTTGAGCCC; chain 2 UGCCUUUGUAGAAUGCCUUGAGCCC; chemistry not given here; one strand in two spellings) | ++ (70-90% mRNA knockdown) | ++ (70-90% mRNA knockdown) | − (no growth inhibition) | 
SEQ ID NO: 4928: siRNA targeting SLC25A10 (DIC) (chain 1 AATAAAGCTGGCGACAAAGTGAGTG; chain 2 AAUAAAGCUGGCGACAAAGUGAGUG; chemistry not given here; one strand in two spellings) | ++ (70-90% mRNA knockdown) | ++ (70-90% mRNA knockdown) | ++ (inhibits by at least 75%) | 
SEQ ID NO: 4929: siRNA targeting SLC25A10 (DIC) (chain 1 TAGGTCATCTGTCTGCACAGCGAGG; chain 2 UAGGUCAUCUGUCUGCACAGCGAGG; chemistry not given here; one strand in two spellings) | − (<50% mRNA knockdown) | + (50-70% mRNA knockdown) | − (no growth inhibition) | 
